These results are taken from patent publication US20250296971A1, “GASTRIC INHIBITORY PEPTIDE RECEPTOR LIGANDS” (priority 2021, published 2025).

*1 amine or outer side, *2 acyl side, *3 side chain or, on linkers, in order; H or OH if unused. Where a SMILES comes first, the peptide text is derived from it. Bridges are numbered along the chain shown (N, C = ends). [ ]: non-standard residue; d: D form. The star is where a group is joined. X3 = O=C(O)CN1CCN(CC(=O)O)CCN(CC(=O)NCCCOCCOCCOCCCN*)CCN(CC(=O)O)CC1; Pro(trans-4-NH2) = O=C([C@@H]1C[C@@H](N[*:3])CN1[*:1])[*:2]; DOTA = O=C(O)CN1CCN(CC(=O)O)CCN(CC(=O)*)CCN(CC(=O)O)CC1; Trp(5-Cl) = N[C@@H](Cc1c[nH]c2ccc(Cl)cc12)C(=O)O; Phe(3,5-Cl2) = N[C@@H](Cc1cc(Cl)cc(Cl)c1)C(=O)O; Pyridine(2,6-diCH2) = c1cc(C[*:1])nc(C[*:2])c1; Phe(2-Cl) = N[C@@H](Cc1ccccc1Cl)C(=O)O; 1Nal = N[C@@H](Cc1cccc2ccccc12)C(=O)O; mXylylene = c1cc(C[*:1])cc(C[*:2])c1; Hyp = O=C(O)[C@@H]1C[C@@H](O)CN1; Suc = O=C(CCC(=O)[*:2])[*:1]; hLeu = CC(C)CC[C@H](N)C(=O)O; Api = NC1(C(=O)O)CCNCC1; Thp = NC1(C(=O)O)CCOCC1 Some results are limits rather than exact numbers.

Assay [1] addresses T1, GIPR (CHO-K1-hGIPR cells) (Homo sapiens, UniProt P48546).
T1 construct: host or cells: CHO-K1
T1 sequence (P48546 22-466): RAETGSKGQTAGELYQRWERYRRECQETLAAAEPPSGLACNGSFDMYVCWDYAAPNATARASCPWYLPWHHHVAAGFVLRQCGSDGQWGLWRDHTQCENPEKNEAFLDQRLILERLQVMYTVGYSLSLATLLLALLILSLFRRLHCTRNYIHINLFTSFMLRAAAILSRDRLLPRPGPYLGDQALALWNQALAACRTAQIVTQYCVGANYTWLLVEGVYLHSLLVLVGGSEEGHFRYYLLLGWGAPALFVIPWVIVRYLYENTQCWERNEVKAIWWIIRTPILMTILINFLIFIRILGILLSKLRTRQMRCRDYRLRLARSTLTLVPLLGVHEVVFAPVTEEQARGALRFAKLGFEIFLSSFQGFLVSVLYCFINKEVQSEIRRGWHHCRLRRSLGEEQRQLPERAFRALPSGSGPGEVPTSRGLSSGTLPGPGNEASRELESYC
The experiment in a line: FACS binding assay. As to conditions: for IC50: competition with 20 nM GIP-057, 4° C. for 1 hour, read-out: pIC50 Category (converted); for pIC50 Category: competition with 20 nM GIP-057, 4° C., 1 hour. The procedure, abridged:
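CHO-K1 cells expressing human GIPR, washed in PBS/1% FCS, then stained with 1 μg/mL APC-streptavidin for 30 min on ice.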

The target of assay [2] is human Gastric Inhibitory Peptide Receptor (human) (UniProt P48546). As to the kind of experiment: FACS competition with GIP-057 on CHO-K1-hGIPR cells; pIC50 category A: >8.0.

Turning to `CC[C@H](C)[C@@H]1NC(=O)[C@H](CC(C)C)NC(=O)C2(CCOCC2)NC(=O)[C@@H](NC(=O)[C@@H](CC(C)C)NC(=O)[C@H](Cc2c[nH]c3ccccc23)NC(=O)[C@@H]2C[C@@H](O)CN2C(=O)[C@H](Cc2c[nH]c3ccc(Cl)cc23)NC(=O)[C@H](Cc2c[nH]c3ccccc23)NC(=O)[C@H](CC(=O)O)NC(C)=O)CSCc2cccc(n2)CSC[C@@H](C(N)=O)NC1=O` [GIP-397, Ac-Asp-Trp-5Clw-Hyp-Trp-leu-[Cys(2Lut)-Thp-Leu-Ile-Cys]-NH2] (Ac-DW[Trp(5-Cl)][Hyp]W[dL]C[Thp]LIC-NH2; linker 7-11 via Pyridine(2,6-diCH2)), in assay [1], the IC50 is 10 to 79.4 nM.

`CC[C@H](C)[C@@H]1NC(=O)[C@H](CC(C)C)NC(=O)C2(CCOCC2)NC(=O)[C@@H](NC(=O)[C@@H](CC(C)C)NC(=O)[C@@H]2CCCN2C(=O)[C@@H]2C[C@@H](O)CN2C(=O)[C@H](Cc2c[nH]c3ccc(Cl)cc23)NC(=O)[C@H](Cc2c[nH]c3ccccc23)NC(=O)[C@H](CC(=O)O)NC(C)=O)CSCc2cccc(n2)CSC[C@@H](C(N)=O)NC1=O` [GIP-398, Ac-Asp-Trp-5Clw-Hyp-Pro-leu-[Cys(2Lut)-Thp-Leu-Ile-Cys]-NH2] (Ac-DW[Trp(5-Cl)][Hyp]P[dL]C[Thp]LIC-NH2; linker 7-11 via Pyridine(2,6-diCH2)): the IC50 in assay [1] is 10 to 79.4 nM.

Regarding `CC[C@H](C)[C@@H]1NC(=O)[C@H](CC(C)C)NC(=O)C2(CCOCC2)NC(=O)[C@@H](NC(=O)[C@@H](CC(C)C)NC(=O)[C@H](CCC(=O)O)NC(=O)[C@@H]2C[C@@H](O)CN2C(=O)[C@H](Cc2c[nH]c3ccc(Cl)cc23)NC(=O)[C@H](Cc2ccccc2Cl)NC(=O)[C@H](CC(=O)O)NC(C)=O)CSCc2cccc(n2)CSC[C@@H](C(=O)N[C@H](CCCCNC(=O)CN2CCN(CC(=O)O)CCN(CC(=O)O)CCN(CC(=O)O)CC2)C(N)=O)NC1=O` [GIP-399, Ac-Asp-Ocf-5Clw-Hyp-Glu-leu-[Cys(2Lut)-Thp-Leu-Ile-Cys]-lys(DOT A)-NH2] (Ac-D[Phe(2-Cl)][Trp(5-Cl)][Hyp]E[dL]C[Thp]LIC[dK](DOTA)-NH2; linker 7-11 via Pyridine(2,6-diCH2)), the IC50 in assay [1] was 100 to 794 nM.

On to `CC[C@H](C)[C@@H]1NC(=O)[C@H](CC(C)C)NC(=O)C2(CCN(C(=O)CN3CCN(CC(=O)O)CCN(CC(=O)O)CCN(CC(=O)O)CC3)CC2)NC(=O)[C@@H](NC(=O)[C@H](CCC(C)C)NC(=O)[C@H](CCC(=O)O)NC(=O)[C@@H]2CCCN2C(=O)[C@H](Cc2cccc3ccccc23)NC(=O)[C@H](Cc2c[nH]c3ccccc23)NC(=O)[C@H](CC(=O)O)NC(C)=O)CSCc2cccc(c2)CSC[C@@H](C(N)=O)NC1=O` [GIP-400, Ac-Asp-Trp-1Ni-Pro-Glu-Hle-[Cys(3MeBn)-Apc(DOTA)-Leu-Ile-Cys]-NH2] (Ac-DW[1Nal]PE[hLeu]C[Api](DOTA)LIC-NH2; linker 7-11 via mXylylene), for which, in assay [1], the IC50 is 100 to 794 nM.

As for `CC[C@H](C)[C@@H]1NC(=O)[C@H](CC(C)C)NC(=O)C2(CCOCC2)NC(=O)[C@@H](NC(=O)[C@@H](CC(C)C)NC(=O)[C@H](CCC(=O)O)NC(=O)[C@@H]2C[C@@H](O)CN2C(=O)[C@H](Cc2cc(Cl)cc(Cl)c2)NC(=O)[C@H](Cc2c[nH]c3ccccc23)NC(=O)[C@H](CC(=O)O)NC(=O)CCC(=O)NCCCOCCOCCOCCCNC(=O)CN2CCN(CC(=O)O)CCN(CC(=O)O)CCN(CC(=O)O)CC2)CSCc2cccc(n2)CSC[C@@H](C(N)=O)NC1=O` [GIP-401, DOTA-Ttds-Asp-Trp-Egn-Hyp-Glu-leu-[Cys(2Lut)-Thp-Leu-Ile-Cys]-NH2] ({X3-Suc}-DW[Phe(3,5-Cl2)][Hyp]E[dL]C[Thp]LIC-NH2; linker 7-11 via Pyridine(2,6-diCH2)), the IC50 in assay [1] was 10 to 79.4 nM.

For `CC[C@H](C)[C@@H]1NC(=O)[C@H](CC(C)C)NC(=O)C2(CCOCC2)NC(=O)[C@@H](NC(=O)[C@@H](CC(C)C)NC(=O)[C@H](CCC(=O)O)NC(=O)[C@@H]2C[C@@H](NC(=O)CN3CCN(CC(=O)O)CCN(CC(=O)O)CCN(CC(=O)O)CC3)CN2C(=O)[C@H](Cc2cc(Cl)cc(Cl)c2)NC(=O)[C@H](Cc2c[nH]c3ccccc23)NC(=O)[C@H](CC(=O)O)NC(C)=O)CSCc2cccc(n2)CSC[C@@H](C(N)=O)NC1=O` [GIP-402, Ac-Asp-Trp-Egn-Tap(DOTA)-Glu-leu-[Cys(2Lut)-Thp-Leu-Ile-Cys]-NH2] (Ac-DW[Phe(3,5-Cl2)][Pro(trans-4-NH2)](DOTA)E[dL]C[Thp]LIC-NH2; linker 7-11 via Pyridine(2,6-diCH2)), in assay [1], the IC50 is 10 to 79.4 nM.

Turning to “Ac-Cya-Trp-5Clw-Hyp-Glu-leu-[Cys(2Lut)-Thp-Leu-Ile-Cys]-NH2 (peptide)”, the pIC50 in assay [2] is above 8 pic50.

The molecule “DOTA-APAc-Asp-Trp-5Clw-Hyp-Glu-leu-[Cys(2Lut)-Apc(AGLU-Glutar)-Leu-Ile-Cys]-APAc-glu(AGLU)-NH2 (peptide)” displayed a pIC50 in assay [2] above 8 pic50.

Regarding “DOTA-Asp-Trp-5Clw-Hyp-Glu-leu-[Cys(2Lut)-Thp-Leu-Ile-Cys]-NH2 (peptide)”, the pIC50 in assay [2] is above 8 pic50.

For “HO-Succinyl-Trp-5Clw-Hyp-Glu-leu-[Cys(2Lut)-Apc(MeO2kDaPEGAc)-Leu-Ile-Cys]-APAc-Lys(DOTA)-NH2 [GIP-143]”, in assay [1], the “pIC50 Category” value was “B (pIC50 values between 7.1 and 8.0)”.

Regarding “HO-Succinyl-Trp-5Clw-Hyp-Glu-leu-[Cys(2Lut)-Thp-Leu-Ile-Cys]-APAc-lys(MeO2kDaPEGAc)-Lys(DOTA)-NH2 [GIP-144]”, the “pIC50 Category” value in assay [1] is “B (pIC50 values between 7.1 and 8.0)”.

Take “MeO2kDaPEGAc-Asp-Trp-5Clw-Hyp-Glu-leu-[Cys(2Lut)-Thp-Leu-Ile-Cys]-lys(DOTA)-NH2 [GIP-120]”: the “pIC50 Category” value in assay [1] was “A (pIC50 values>8.0)”.
